Measured values: ChEMBL document CHEMBL3271943, “P-Aminobenzoic acid derivatives. Mode of action and structure-activity relationships in a cell-free system (Escherichia coli)” (J Med Chem, 1977)
Activity calls are given as the source filed them. The calls are words filed in the database; no cut-off is given here.

What was measured:
Albumin = Albumin (Homo sapiens, UniProt P02768); experiment: Binding affinity to human serum albumin at 100 umol/l by equilibrium dialysis technique; format: ADME; details: isolated protein, 100 µM
Sequence of Albumin (P02768 whole entry): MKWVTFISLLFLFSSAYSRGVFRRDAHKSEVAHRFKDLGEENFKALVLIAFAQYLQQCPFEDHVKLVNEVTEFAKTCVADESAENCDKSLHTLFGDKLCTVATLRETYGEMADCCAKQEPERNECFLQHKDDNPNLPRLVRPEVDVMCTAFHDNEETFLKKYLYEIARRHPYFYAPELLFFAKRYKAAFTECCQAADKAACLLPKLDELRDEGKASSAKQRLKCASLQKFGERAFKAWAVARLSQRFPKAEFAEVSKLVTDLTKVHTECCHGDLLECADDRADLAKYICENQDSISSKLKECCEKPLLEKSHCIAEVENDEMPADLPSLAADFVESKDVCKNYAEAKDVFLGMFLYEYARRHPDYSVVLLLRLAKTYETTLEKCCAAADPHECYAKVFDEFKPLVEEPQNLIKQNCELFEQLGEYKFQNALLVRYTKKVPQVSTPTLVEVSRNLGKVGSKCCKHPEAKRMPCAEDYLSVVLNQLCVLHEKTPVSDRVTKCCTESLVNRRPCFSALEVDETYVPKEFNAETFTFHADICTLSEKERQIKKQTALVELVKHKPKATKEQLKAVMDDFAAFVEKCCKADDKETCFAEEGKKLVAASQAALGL

physchem [1] = experiment: physchem
Description: Dissociation constant, pKa of the compound by spectrophotometric analysis

Escherichia coli [2] = experiment: microbe, parasite or virus in culture; details: 24 h, read-out: ID50
Description: Antimicrobial activity against Escherichia coli assessed as growth inhibition after 24 hrs by turbidimetric analysis

[3] = octanol/water
Description: Lipophilic-hydrophilic balance, Rm of the compound by TLC analysis

Enterococcus faecalis [4] = experiment: Induction of Streptococcus faecalis growth; format: functional, organism-based
physchem [5] = details: aqueous solution
Description: Hydrolytic dissociation constant, pKa of the compound in aqueous solution at 50 degC

Escherichia coli [6] = experiment: Inhibition of Escherichia coli dihydropteroic acid synthesizing system-mediated folate production at 50 to 250 umol/l
Enterococcus faecalis [7] = experiment: Growth inhibition of Streptococcus faecalis; format: functional, organism-based
[8] = buffer
Description: Solubility of the compound in water

Escherichia coli [9] = experiment: Reversal of sulfapyridine-mediated growth inhibition of Escherichia coli at 4 to 400 umol/l; format: functional, organism-based
Escherichia coli [10] = experiment: Reversal of sulfabenzene-mediated growth inhibition of Escherichia coli at 4 to 400 umol/l; format: functional, organism-based

| Structure (SMILES) | log(PB) (Albumin) | pKa (physchem [1]) | IC50 (Escherichia coli [2]) [µM] | Rm [3] | also measured |
| --- | --- | --- | --- | --- | --- |
| N#CSc1cc(C(=O)O)ccc1N | 1.68 | 4.52 | 190 | – | – |
| Cl.Nc1ccc(C(=O)O)c(I)c1 | 1.79 | 3.81 | 30 | 2.4 | – |
| Nc1nc(=O)c2nc(CNc3ccc(C(=O)O)c(F)c3)cnc2[nH]1 | – | – | – | – | Activity (Enterococcus faecalis [4]): Active |
| Nc1ccc(C(=O)O)cc1 [AMINOBENZOIC ACID] | – | – | – | 1.21 | pKa (physchem [5]): 4.67 |
| Nc1ccc(C(=O)O)c(Cl)c1 | 1.36 | 3.88 | 45 | 2.17 | inhibition (Escherichia coli [6]): inactive; pKa (physchem [5]): 3.93 |
| Nc1nc(=O)c2nc(CNc3ccc(C(=O)O)c(Cl)c3)cnc2[nH]1 | – | – | – | – | growth inhibition (GI) (Enterococcus faecalis [7]): inactive; Activity (Enterococcus faecalis [4]): inactive |
| Nc1ccc(C(=O)O)cc1I | 1.92 | 4.34 | 110 | 2.95 | – |
| CCCCCCOc1cc(C(=O)O)ccc1N | 1.97 | 4.47 | 85 | – | solubility [8]: soluble; inhibition (Escherichia coli [6]): inactive |
| Nc1nc(O)c2c(n1)NCC(CNc1ccc(C(=O)O)c(Cl)c1)=N2 | – | – | – | – | Activity (Escherichia coli [9]): Active; Activity (Escherichia coli [10]): Active |
| Nc1ccc(C(=O)O)c(O)c1 [AMINOSALICYLIC ACID] | 1.57 | 3.52 | 25 | 1.92 | inhibition (Escherichia coli [6]): inactive; pKa (physchem [5]): 3.62 |
| Nc1ccc(C(=O)O)cc1C(=O)c1ccccc1 | – | 4.34 | 105 | – | solubility [8]: soluble |
| Nc1ccc(C(=O)O)c([N+](=O)[O-])c1 | 1.33 | 2.78 | 100 | 2.3 | pKa (physchem [5]): 3.22 |
| Nc1nc(O)c2nc(CNc3ccc(C(=O)O)cc3)cnc2n1 | – | – | – | – | Activity (Enterococcus faecalis [4]): Active |
| Nc1nc2c(c(=O)[nH]1)N=C(CNc1ccc(C(=O)O)cc1)CN2 | – | – | – | – | Activity (Escherichia coli [9]): Active; Activity (Escherichia coli [10]): Active |
| COc1cc(N)ccc1C(=O)O | 1.26 | 5.04 | 100 | – | pKa (physchem [5]): 5.1 |
| Nc1ccc(C(=O)O)cc1Cl | 1.81 | 4.35 | 100 | 2.38 | – |
| Nc1nc(=O)c2nc(CNc3ccc(C(=O)N[C@@H](CCC(=O)O)C(=O)O)cc3)cnc2[nH]1 | – | – | – | – | Activity (Enterococcus faecalis [4]): Active |
| CCCCOc1cc(N)ccc1C(=O)O | 1.69 | 5.25 | 125 | 2.4 | solubility [8]: soluble |
| Cc1cc(N)ccc1C(=O)O | 1.16 | 4.83 | 30 | 1.73 | – |

| Structure (SMILES) | log(PB) (Albumin) | pKa (physchem [1]) | IC50 (Escherichia coli [2]) [µM] | Rm [3] | also measured |
| --- | --- | --- | --- | --- | --- |
| CCCCCOc1cc(N)ccc1C(=O)O | 1.76 | 5.1 | 135 | 2.85 | solubility [8]: soluble |
| CCCCCCCCOc1cc(N)ccc1C(=O)O | – | 5.4 | 25 | 4.25 | solubility [8]: soluble |
| Nc1ccc(C(=O)O)c(F)c1 | 1.27 | 4.13 | 125 | 1.62 | – |
| CCCOc1cc(N)ccc1C(=O)O | 1.69 | 4.96 | 140 | 1.75 | solubility [8]: soluble |
| Cl.Nc1ccc(C(=O)O)cc1N | 0.95 | 4.84 | 40 | – | – |
| Nc1ccc(C(=O)O)cc1Br | 1.89 | 4.24 | 110 | 2.85 | pKa (physchem [5]): 4.31 |
| Nc1ccc(C(=O)O)c(C(=O)O)c1 | 0.45 | – | 120 | – | – |
| Cc1cc(C(=O)O)ccc1N | 1.37 | 4.62 | 120 | 1.6 | – |
| Nc1ccc(C(=O)O)cc1C(=O)O | 1.82 | – | 120 | – | – |
| C=CCOc1cc(N)ccc1C(=O)O | 1.63 | 5.01 | 125 | 1.68 | solubility [8]: soluble |
| Nc1ccc(C(=O)O)cc1O | 1.27 | 4.59 | 85 | – | – |
| Nc1ccc(C(=O)O)cc1[N+](=O)[O-] | 1.89 | 3.96 | 130 | 3.11 | solubility [8]: soluble |
| Cl.Nc1ccc(C(=O)O)c(N)c1 | 1 | 5.81 | 3.5 | – | – |
| CC(C)CCOc1cc(N)ccc1C(=O)O | – | 5.17 | 125 | 2.7 | solubility [8]: soluble |
| CCOc1cc(N)ccc1C(=O)O | 1.56 | 5.09 | 130 | 1.31 | solubility [8]: soluble |
| Cl.Nc1ccc(C(=O)O)c(Br)c1 | 1.67 | 3.69 | 8 | 2.38 | pKa (physchem [5]): 3.85 |
| CCCCCCCOc1cc(N)ccc1C(=O)O | – | 5.3 | 90 | 3.77 | solubility [8]: soluble |
| Nc1ccc(C(=O)O)cc1F | 1.52 | 4.35 | 13 | 1.66 | inhibition (Escherichia coli [6]): Active |
| Nc1nc(O)c2c(n1)NCC(CNc1ccc(C(=O)O)cc1F)=N2 | – | – | – | – | Activity (Escherichia coli [9]): Active; Activity (Escherichia coli [10]): Active |
